Data taken from ChEMBL document CHEMBL1201862, “PubChem BioAssay data set” (2004).
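Following 48 hours of exposure in 96-well plates, responses at five concentrations were used to interpolate endpoints linearly. GI50 marks 50% less growth.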 Active and inactive are the calls of the source. No stated cut-off is given here; in the data, active = GI50 up to about 1.1 µM and inactive = higher.

Experiments:
Test in all cases: NCI-60 cell line screen, 48 h
SF-295 = tested on: SF-295
LXFL 529 = tested on: LXFL 529
OVCAR-3 = tested on: OVCAR-3
SK-MEL-2 = tested on: SK-MEL-2
DMS-114 = tested on: DMS-114
UACC-257 = tested on: UACC-257
SNB-75 = tested on: SNB-75
HL-60 = tested on: HL-60
DLD-1 = tested on: DLD-1
SNB-78 = tested on: SNB-78
LOX IMVI = tested on: LOX IMVI
NCI-H522 = tested on: NCI-H522
KM-20L2 = tested on: KM-20L2
SN12C = tested on: SN12C

Measured: GI50

Nc1ccccc1C(=O)/C=C/c1ccccc1O
inactive: SF-295 > 100 µM | LXFL 529 39.2 µM | OVCAR-3 31.4 µM | SK-MEL-2 28.3 µM | DMS-114 29.8 µM | UACC-257 15.1 µM | SNB-75 17.5 µM | HL-60 22.8 µM | DLD-1 47.2 µM | SNB-78 41.5 µM | LOX IMVI 43.8 µM | NCI-H522 34.5 µM | KM-20L2 > 100 µM | SN12C 55.2 µM

CC(=O)NC(CCCNCc1ccccc1)C(=O)NCc1ccccc1 (centres undefined)
inactive: SF-295 > 100 µM | LXFL 529 > 100 µM | OVCAR-3 > 100 µM | SK-MEL-2 > 100 µM | DMS-114 > 100 µM | UACC-257 > 100 µM | SNB-75 87.3 µM | DLD-1 > 100 µM | SNB-78 82 µM | LOX IMVI > 100 µM | NCI-H522 > 100 µM | KM-20L2 > 100 µM | SN12C > 100 µM

Cc1cc(-c2ccccc2)nc(Nc2nc3ccccc3o2)n1
inactive: SF-295 > 100 µM | LXFL 529 > 100 µM | OVCAR-3 > 100 µM | SK-MEL-2 > 100 µM | DMS-114 > 100 µM | UACC-257 > 100 µM | HL-60 > 100 µM | DLD-1 > 100 µM | SNB-78 > 100 µM | LOX IMVI > 100 µM | NCI-H522 > 100 µM | KM-20L2 > 100 µM | SN12C > 100 µM

CS(=O)(=O)c1nc(N)nc2nc[nH]c12
inactive: SF-295 > 100 µM | LXFL 529 > 100 µM | OVCAR-3 > 100 µM | SK-MEL-2 > 100 µM | DMS-114 > 100 µM | UACC-257 > 100 µM | HL-60 > 100 µM | DLD-1 > 100 µM | SNB-78 > 100 µM | LOX IMVI > 100 µM | NCI-H522 74.8 µM | KM-20L2 > 100 µM | SN12C > 100 µM

CC(=O)CC(=O)Nc1ccccc1[N+](=O)[O-]
inactive: SF-295 > 100 µM | LXFL 529 > 100 µM | OVCAR-3 > 100 µM | SK-MEL-2 > 100 µM | DMS-114 > 100 µM | UACC-257 > 100 µM | SNB-75 > 100 µM | HL-60 > 100 µM | DLD-1 > 100 µM | SNB-78 > 100 µM | NCI-H522 > 100 µM | KM-20L2 > 100 µM | SN12C > 100 µM

Cn1c(=O)c2ccc(-c3ccc(Br)cc3)nc2n(C)c1=O
inactive: SF-295 > 100 µM | LXFL 529 > 100 µM | OVCAR-3 > 100 µM | SK-MEL-2 > 100 µM | DMS-114 > 100 µM | UACC-257 > 100 µM | SNB-75 29.6 µM | HL-60 > 100 µM | DLD-1 > 100 µM | SNB-78 85.3 µM | LOX IMVI > 100 µM | NCI-H522 > 100 µM

CO[C@]12CCC(=O)N1C=Cc1c2[nH]c2ccccc12
inactive: SF-295 > 100 µM | LXFL 529 > 100 µM | OVCAR-3 > 100 µM | DMS-114 > 100 µM | UACC-257 > 100 µM | SNB-75 > 100 µM | HL-60 > 100 µM | DLD-1 > 100 µM | SNB-78 > 100 µM | LOX IMVI > 100 µM

Cc1nc2c(o1)/C(=N\c1ccccc1)c1nc(C)oc1/C2=N/c1ccccc1
inactive: SF-295 23.4 µM | LXFL 529 20.8 µM | OVCAR-3 39.2 µM | SK-MEL-2 26.8 µM | DMS-114 25.5 µM | UACC-257 29.6 µM | SNB-75 11.7 µM | HL-60 49.9 µM | DLD-1 25.5 µM | SNB-78 > 100 µM | LOX IMVI 28.2 µM | NCI-H522 21.7 µM | KM-20L2 25.5 µM | SN12C 17.5 µM

CCCCCCCCCCCCCCCCOP(=O)(O)Oc1ccc(/C=C\c2ccc(OP(=O)(O)OCCCCCCCCCCCCCCCC)cc2)cc1
inactive: SF-295 29.6 µM | LXFL 529 28.3 µM | OVCAR-3 43.2 µM | SK-MEL-2 > 100 µM | DMS-114 10.1 µM | UACC-257 > 100 µM | SNB-75 12 µM | HL-60 26 µM | DLD-1 > 100 µM | SNB-78 20.1 µM | LOX IMVI > 100 µM | NCI-H522 29.6 µM | KM-20L2 67.3 µM | SN12C > 100 µM

[N-]=[N+]=NC(CCl)c1cn([C@H]2C[C@H](O)[C@@H](CO)O2)c(=O)[nH]c1=O (some centres undefined)
inactive: SF-295 > 100 µM | LXFL 529 > 100 µM | OVCAR-3 > 100 µM | SK-MEL-2 > 100 µM | DMS-114 > 100 µM | SNB-75 > 100 µM | HL-60 > 100 µM | DLD-1 > 100 µM | SNB-78 > 100 µM | LOX IMVI > 100 µM | NCI-H522 > 100 µM | KM-20L2 > 100 µM | SN12C > 100 µM
